Consider one compound from publication PMC12391994, “Synthesis of a fac-Tricarbonylrhenium(I) Complex with Pyrithione, Its Physicochemical Characterization, and Assessment of Biological Effects” (ACS Omega, 2025).

Series [1] in a line: Stability of complex 4 in DMSO followed by 1H NMR. In kind it is physicochemical. Here is the method: A Bruker Avance III HD Ascend 500 Plus instrument (Billerica, MA) was used for solution NMR studies. Spectra were recorded with a WATERGATE water suppression pulse scheme in the presence of 10% (v/v) D2O in most cases. DSS internal standard was added to samples to obtain reference peaks.

Another series is described as follows: Behavior in blood serum. The settings on record: concentration of 40 μM. It counts as physicochemical, human.
Series [2] in a line: pH-dependent UV-vis spectrophotometry (solution speciation, pKa of aqua ligand). In kind it is physicochemical. The settings on record: between pH 3 and 8, no spectral changes. From the text:
However, at pH > ∼8, the spectrum changes considerably (Figure ).
The isosbestic point indicates a single equilibrium process, which is most likely deprotonation of the coordinated aqua ligand in complex 4a. This process was studied in our previous work for similar fac-[Re(CO)3] complexes formed with (N,N)-bearing ligands, and the calculated pK a (H2O) is around 8. […] Similar pK a values in the presence and absence of the chloride ions indicate a low chloride affinity of the aqua complex. Based on these values, the fraction of [Re(CO)3(pth)(H2O)] is 100% at pH = 7.4. The analogous half-sandwich complex [Ru(cym)(pth)(H2O)]^+ was also characterized by high solution stability, and a similarly high pK a value (10.34 (0.2 M KCl)).
For the solution studies, an Agilent Cary 3500 spectrophotometer was utilized to obtain UV–vis spectra in the wavelength range of 200–1100 nm. The path length ( l ) was 1 cm in all cases. The concentrations of the complex were between 10 and 60 μM. For investigation of the effect of chloride ions, the samples contained 60 μM complex and 0–7300 equiv of Cl^–. For HSA-containing samples, complex concentrations were 60 μM, and 0.5 equiv of biomolecule (or 6 equiv of MIM) was added for kinetic studies, respectively. Individual samples contained 0–34 μM HSA. The computer program HypSpec was used to obtain equilibrium constants.

Another series has as its system S. aureus ATCC 25923. As to the kind of experiment: Antibacterial MIC assay, S. aureus ATCC 25923. It counts as cell-based, Staphylococcus aureus. The settings on record: 18 h, visual inspection. Here is the method:
(§1) The antibacterial effect of the complex was tested against the Gram-negative strain Escherichia coli (E. coli) ATCC 25922, the Gram-positive reference strain Staphylococcus aureus (S. aureus) ATCC 25923, and the methicillin-resistant S. aureus MRSA ATCC 43300 strain. MRSA strains are responsible for several difficult-to-treat hospital-acquired infections.
(§2) The following bacterial strains were used in our experiments: Gram-positive S. aureus American Type Culture Collection (ATCC) 25923 as the methicillin-susceptible reference bacterial strain; methicillin-resistant S. aureus ATCC 43300 (MRSA) strain; E. coli ATCC 25922 as a Gram-negative bacterial strain.
(§3) MIC values of the complexes were determined in 96-well plates based on the Clinical and Laboratory Standard Institute guidelines (CLSI guidelines). The stock solutions of the compound (dissolved in DMSO at 5 mM concentration) were diluted in 100 μL of Mueller Hinton Broth. Then, 10^–4 dilution of an overnight bacterial culture in 100 μL of medium was added to each well, with the exception of the medium control wells.

The test system of series [3] is S. aureus MRSA ATCC 43300. The series can be described thus: Antibacterial MIC assay, S. aureus MRSA ATCC 43300. It counts as cell-based, Staphylococcus aureus. The conditions noted are these: 18 h, visual inspection. The procedure:
as §1, §2, §3

The target in series [4] is T1, cathepsin B (endopeptidase activity) (Homo sapiens, UniProt P07858).
T1 construct: made in house; host or cells: E. coli
The series can be described thus: Relative inhibition of cathepsin B endopeptidase activity. In kind it is biochemical. The settings on record: 50 μM; substrate Z-Arg-Arg-AMC; pH 6.0. The text has this:
(§4) Relative inhibition is expressed as a percentage of the decrease in reaction velocity in the presence of an inhibitor, in comparison to the reaction velocity in the absence of an inhibitor. For that purpose, the specific fluorogenic substrates Z-Arg-Arg-7-amido-4-methylcoumarin (Z-Arg-Arg-AMC) and 2-aminobenzoyl (Abz)-Gly-Ile-Val-Arg-Ala-Lys-(Dnp)-OH were used for cathepsin B endopeptidase and exopeptidase activities, respectively, and Z-Phe-Arg-AMC was used for cathepsin L and V activities.
(§5) Human recombinant cathepsin B was expressed in E. coli, recombinant cathepsin V was expressed in Pichia pastoris, and human recombinant cathepsin L was expressed in E. coli, as reported. − For the determination of cathepsin B endopeptidase and exopeptidase activities, 100 mM phosphate buffer (pH 6.0) and 60 mM acetate buffer (pH 5.0) were used, respectively, and for the determination of cathepsin V and L activities, 100 mM acetate buffer (pH 5.5) was used. All buffers contained 0.1% PEG 8000 (Sigma-Aldrich, St. Louis, MO), 5 mM cysteine, and 1.5 mM EDTA. Prior to the assay, the enzymes were activated in the assay buffer for 5 min at 37 °C.
(§6) To determine the effect of inhibitors on enzyme activity, the following substrates were used: Z-Arg-Arg-AMC (final concentration 5 μM, Z-RR-AMC; Bachem, Bubendorf, Switzerland) for cathepsin B endopeptidase activity, Abz-Gly-Ile-Val-Arg-Ala-Lys-(Dnp)-OH (final concentration 1 μM, Abz-GIVRAK-(Dnp)-OH; Bachem) for cathepsin B exopeptidase activity, and Z-Phe-Arg-AMC (final concentration 2 μM, Z-FR-AMC; Bachem) for cathepsin V and L activity. The substrate ([…]) at a final concentration and inhibitor ([…]) at a concentration of 50 μM were added to the wells of a black microplate. The reaction was then initiated by adding 90 μL of activated enzyme (final concentrations: 5 nM cathepsin B for its endopeptidase activity, 0.5 nM cathepsin B for its exopeptidase activity, 2.5 ng/mL for cathepsin V, and 0.02 nM for cathepsin L) in the assay buffer. The formation of fluorescent degradation products during the reaction was continuously monitored at 460 ± 10 nm with excitation at 380 ± 20 nm for Z-Arg-Arg-AMC and Z-Phe-Arg-AMC and at 420 ± 10 nm with excitation at 320 ± 20 nm for Abz-Gly-Ile-Val-Arg-Ala-Lys(Dnp)-OH at 37 °C on a Tecan Infinite M1000 (Mannedorf, Switzerland) spectrofluorometer. All assay mixtures contained 5% (v/v) DMSO. To prevent false-positive inhibition due to the formation of compound aggregates, 0.01% Triton X-100 was used. All measurements were performed in triplicate and repeated twice. The relative inhibition was calculated using the following equation: relative inhibition (%) = 100(1 – v i/v o), where v i and v o designate the reaction velocities in the presence and absence of inhibitor, respectively.

Series [5] has as its target T2, cathepsin B (exopeptidase activity) (Homo sapiens, UniProt P07858).
T2 construct: made in house; host or cells: E. coli
The series can be described thus: Relative inhibition of cathepsin B exopeptidase activity. It counts as biochemical. The settings on record: 50 μM; substrate Abz-Gly-Ile-Val-Arg-Ala-Lys-(Dnp)-OH; pH 5.0.
Text: as §4, §5, §6

The next series addresses T3, cathepsin L (Homo sapiens, UniProt P07711).
T3 construct: made in house; host or cells: E. coli
As to the kind of experiment: Relative inhibition of cathepsin L. In kind it is biochemical. The settings on record: 50 μM; substrate Z-Phe-Arg-AMC; pH 5.5.
Text: as §4, §5, §6

Usually MIC stands for the lowest concentration that inhibits growth of the organism.

T3 sequence (P07711 114-333): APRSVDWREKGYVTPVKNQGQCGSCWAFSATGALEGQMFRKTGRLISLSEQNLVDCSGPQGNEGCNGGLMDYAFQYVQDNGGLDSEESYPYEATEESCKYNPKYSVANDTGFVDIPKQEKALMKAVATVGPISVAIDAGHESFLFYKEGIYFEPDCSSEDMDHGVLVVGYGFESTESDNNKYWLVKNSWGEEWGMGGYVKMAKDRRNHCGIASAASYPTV

As to `N#Cc1ccccc1.[C-]#[O+].[C-]#[O+].[C-]#[O+].[O-]n1ccccc1=S.[Re+]` [complex 4, fac-[Re(CO)3(pth)(benzonitrile)]], the “bidentate pyrithione ligand coordination to rhenium(I)” value in series [1] (48 h monitoring period, light-exclusion) is given as “remained coordinated”. The “time for complete replacement of benzonitrile with a solvent molecule” value in series [1] (light-exclusion conditions, 1H NMR) was not above 1 h. Further, the “behavior in blood serum” value in “Behavior in blood serum” is listed as “precipitation”. The “integrity of the complex (aqua form) from UV-vis spectra” value in series [2] is “remains intact”. For the same compound, the minimum inhibitory concentration (MIC) in the series on S. aureus ATCC 25923 is on record as 6.25 µM. For the same compound, the “MIC S. aureus MRSA ATCC 43300” value in series [3] was found to be 12.5 µM. The “relative inhibition cathepsin B endopeptidase” value in series [4] was 63.6 ± 0.8%. In addition, the “relative inhibition cathepsin B exopeptidase” value in [5] was determined as 37.5 ± 2.1%. Further, at cathepsin L, the “relative inhibition cathepsin L” value was 5.0 ± 4.8%. This compound also came in with a maximum nontoxic concentration in the series with Vero cells of 6.25 µM.
